The source made the active and inactive calls. No cut-off for these calls is given here.
Key:
HCC 2998 = experiment: Antiproliferative activity against human HCC 2998 cells assessed as cell growth inhibition incubated for 72 hrs by alamar blue dye based assay; format: functional
CCRF-CEM = experiment: Antiproliferative activity against human CCRF-CEM cells assessed as cell growth inhibition incubated for 72 hrs by alamar blue dye based assay; format: functional
[1] = AUC (0 to last) in Sprague-Dawley rat at 0.2 mg/kg, iv by LC-MS/MS analysis; format: ADME, organism-based; details: in vivo
[2] = molecular target: Class 1 histone deacetylase (Homo sapiens) (UniProt Q13547+O15379+Q92769+Q9BY41); experiment: Inhibition of class 1 HDAC in human RPMI-8226 cells assessed as increase in histone H3 acetylation at 1 to 10 uM incubated for 24 hrs by Western blot analysis; format: cell-based; details: dose 1-10 µM
Histone deacetylase 11 = Histone deacetylase 11 (Homo sapiens, UniProt Q96DB2); experiment: Inhibition of HDAC11 (unknown origin) expressed in baculovirus infected in Sf9 cells using RHKKAc as substrate preincubated for 5 to 10 mins followed by substrate addition measured after 2 hrs by fluorescence based assay
Histone deacetylase 8 = Histone deacetylase 8 (Homo sapiens, UniProt Q9BY41); experiment: Inhibition of HDAC8 (unknown origin) expressed in baculovirus infected in Sf9 cells using RHKKAc as substrate preincubated for 5 to 10 mins followed by substrate addition measured after 2 hrs by fluorescence based assay
Histone deacetylase 9 = Histone deacetylase 9 (Homo sapiens, UniProt Q9UKV0); experiment: Inhibition of HDAC9 (unknown origin) expressed in baculovirus infected in Sf9 cells using RHKKAc as substrate preincubated for 5 to 10 mins followed by substrate addition measured after 2 hrs by fluorescence based assay
BT-549 = experiment: Antiproliferative activity against human BT-549 cells assessed as cell growth inhibition incubated for 72 hrs by alamar blue dye based assay; format: functional
Histone deacetylase 4 = Histone deacetylase 4 (Homo sapiens, UniProt P56524); experiment: Inhibition of HDAC4 (unknown origin) expressed in baculovirus infected in Sf9 cells using RHKKAc as substrate preincubated for 5 to 10 mins followed by substrate addition measured after 2 hrs by fluorescence based assay
SK-MEL-28 = experiment: Antiproliferative activity against human SK-MEL-28 cells assessed as cell growth inhibition incubated for 72 hrs by alamar blue dye based assay; format: functional
[3] = AUC (0 to infinity) in Sprague-Dawley rat at 0.2 mg/kg, iv by LC-MS/MS analysis; format: ADME, organism-based; details: in vivo
Histone deacetylase 5 = Histone deacetylase 5 (Homo sapiens, UniProt Q9UQL6); experiment: Inhibition of HDAC5 (unknown origin) expressed in baculovirus infected in Sf9 cells using RHKKAc as substrate preincubated for 5 to 10 mins followed by substrate addition measured after 2 hrs by fluorescence based assay
Histone deacetylase 3 = Histone deacetylase 3 (Homo sapiens, UniProt O15379); experiment: Inhibition of HDAC3 (unknown origin) expressed in baculovirus infected in Sf9 cells using RHKKAc as substrate preincubated for 5 to 10 mins followed by substrate addition measured after 2 hrs by fluorescence based assay
[4] = Oral bioavailability in Sprague-Dawley rat at 3 mg/kg by LC-MS/MS analysis; format: ADME, organism-based; details: in vivo
[5] = Cmax in Sprague-Dawley rat at 3 mg/kg, po by LC-MS/MS analysis; format: ADME, organism-based; details: in vivo
A498 = experiment: Antiproliferative activity against human A498 cells assessed as cell growth inhibition incubated for 72 hrs by alamar blue dye based assay; format: functional
MDA-MB-435 = experiment: Antiproliferative activity against human MDA-MB-435 cells assessed as cell growth inhibition incubated for 72 hrs by alamar blue dye based assay; format: functional
MCF7 = experiment: Antiproliferative activity against human MCF7 cells assessed as cell growth inhibition incubated for 72 hrs by alamar blue dye based assay; format: functional
SK-OV-3 = experiment: Antiproliferative activity against human SK-OV-3 cells assessed as cell growth inhibition incubated for 72 hrs by alamar blue dye based assay; format: functional
[6] = Half life in Sprague-Dawley rat at 0.2 mg/kg, iv by LC-MS/MS analysis; format: ADME, organism-based; details: in vivo
HOP-92 = experiment: Antiproliferative activity against human HOP-92 cells assessed as cell growth inhibition incubated for 72 hrs by alamar blue dye based assay; format: functional
[7] = Volume of distribution at steady state in Sprague-Dawley rat at 0.2 mg/kg, iv by LC-MS/MS analysis; format: ADME, organism-based; details: in vivo, read-out: Vdss
Histone deacetylase 2 = Histone deacetylase 2 (Homo sapiens, UniProt Q92769); format: cell-based, Sf9
[8] = molecular target: Polyamine deacetylase HDAC10 (Homo sapiens, UniProt Q969S8); experiment: Inhibition of HDAC10 (unknown origin) TR-FRET assay; design: species or system Sf9
Histone deacetylase 1 [9] = molecular target: T1, Histone deacetylase 1 (Homo sapiens, UniProt Q13547); experiment: Inhibition of HDAC1 (unknown origin) expressed in baculovirus infected in Sf9 cells using RHKKAc as substrate preincubated for 5 to 10 mins followed by substrate addition measured after 2 hrs by fluorescence based assay
NCI-H460 = experiment: Antiproliferative activity against human NCI-H460 cells assessed as cell growth inhibition incubated for 72 hrs by alamar blue dye based assay; format: functional
LOX IMVI = experiment: Antiproliferative activity against human LOX IMVI cells assessed as cell growth inhibition incubated for 72 hrs by alamar blue dye based assay; format: functional
SNB-19 = experiment: Antiproliferative activity against human SNB-19 cells assessed as cell growth inhibition incubated for 72 hrs by alamar blue dye based assay; format: functional
Hs-578T = experiment: Antiproliferative activity against human Hs-578T cells assessed as cell growth inhibition incubated for 72 hrs by alamar blue dye based assay; format: functional
Histone deacetylase 1 [10] = molecular target: T1, Histone deacetylase 1; experiment: Inhibition of HDAC1 (unknown origin) expressed in baculovirus infected in Sf9 cells using RHKKAc as substrate at 500 nM preincubated for 5 to 10 mins followed by substrate addition measured after 2 hrs by fluorescence based assay relative to control; details: time 5-130 min

T1 sequence (Q13547 whole entry): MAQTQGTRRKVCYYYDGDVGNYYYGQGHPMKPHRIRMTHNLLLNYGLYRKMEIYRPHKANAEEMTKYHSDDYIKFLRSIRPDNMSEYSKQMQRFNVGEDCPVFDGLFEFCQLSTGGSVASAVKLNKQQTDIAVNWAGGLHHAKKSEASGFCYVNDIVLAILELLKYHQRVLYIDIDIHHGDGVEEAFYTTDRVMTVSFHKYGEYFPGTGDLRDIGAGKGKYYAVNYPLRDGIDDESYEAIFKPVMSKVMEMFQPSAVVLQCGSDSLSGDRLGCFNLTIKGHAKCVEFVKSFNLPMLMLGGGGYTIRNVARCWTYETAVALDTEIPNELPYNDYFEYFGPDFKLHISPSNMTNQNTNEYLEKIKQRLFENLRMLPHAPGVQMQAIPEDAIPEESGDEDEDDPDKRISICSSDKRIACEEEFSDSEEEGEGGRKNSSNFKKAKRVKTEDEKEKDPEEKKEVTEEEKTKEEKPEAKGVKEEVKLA
Sequence of Histone deacetylase 8 (Q9BY41 whole entry): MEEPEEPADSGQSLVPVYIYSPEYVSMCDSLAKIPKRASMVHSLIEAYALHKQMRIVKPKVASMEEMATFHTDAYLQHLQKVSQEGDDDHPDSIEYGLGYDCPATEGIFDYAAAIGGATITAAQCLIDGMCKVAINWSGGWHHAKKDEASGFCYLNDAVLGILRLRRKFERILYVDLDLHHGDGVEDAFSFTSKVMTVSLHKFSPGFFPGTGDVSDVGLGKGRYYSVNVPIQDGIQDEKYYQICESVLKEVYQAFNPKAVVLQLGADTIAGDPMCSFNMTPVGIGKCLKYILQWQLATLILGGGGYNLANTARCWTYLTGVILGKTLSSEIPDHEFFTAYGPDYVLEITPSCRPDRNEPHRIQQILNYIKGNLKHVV
Sequence of Histone deacetylase 11 (Q96DB2 whole entry): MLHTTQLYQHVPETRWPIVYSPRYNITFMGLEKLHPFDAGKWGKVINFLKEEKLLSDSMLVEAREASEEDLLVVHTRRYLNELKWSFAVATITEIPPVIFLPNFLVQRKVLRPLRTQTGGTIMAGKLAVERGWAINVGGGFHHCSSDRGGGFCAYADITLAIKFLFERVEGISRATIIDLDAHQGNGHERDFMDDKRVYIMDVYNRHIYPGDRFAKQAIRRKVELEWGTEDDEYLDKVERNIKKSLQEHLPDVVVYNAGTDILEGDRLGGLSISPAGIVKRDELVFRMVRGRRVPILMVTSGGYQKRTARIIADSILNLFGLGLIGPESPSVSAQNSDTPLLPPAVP
Sequence of Class 1 histone deacetylase (Homo sapiens) (O15379 whole entry, looked up): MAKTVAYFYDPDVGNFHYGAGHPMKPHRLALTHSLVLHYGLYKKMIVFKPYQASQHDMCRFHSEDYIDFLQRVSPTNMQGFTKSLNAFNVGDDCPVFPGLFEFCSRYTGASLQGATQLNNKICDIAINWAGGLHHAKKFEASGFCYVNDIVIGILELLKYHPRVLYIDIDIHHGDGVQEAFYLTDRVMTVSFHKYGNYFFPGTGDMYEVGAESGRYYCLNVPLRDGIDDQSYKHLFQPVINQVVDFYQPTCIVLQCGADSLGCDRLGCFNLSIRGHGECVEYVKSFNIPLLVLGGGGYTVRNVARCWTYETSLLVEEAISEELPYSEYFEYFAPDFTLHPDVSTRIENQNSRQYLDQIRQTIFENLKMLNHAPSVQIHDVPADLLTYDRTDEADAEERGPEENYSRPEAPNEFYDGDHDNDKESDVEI
Sequence of Class 1 histone deacetylase (Homo sapiens) (Q13547 whole entry, looked up): as the sequence (Q13547 whole entry) above
Sequence of Class 1 histone deacetylase (Homo sapiens) (Q92769 whole entry, looked up): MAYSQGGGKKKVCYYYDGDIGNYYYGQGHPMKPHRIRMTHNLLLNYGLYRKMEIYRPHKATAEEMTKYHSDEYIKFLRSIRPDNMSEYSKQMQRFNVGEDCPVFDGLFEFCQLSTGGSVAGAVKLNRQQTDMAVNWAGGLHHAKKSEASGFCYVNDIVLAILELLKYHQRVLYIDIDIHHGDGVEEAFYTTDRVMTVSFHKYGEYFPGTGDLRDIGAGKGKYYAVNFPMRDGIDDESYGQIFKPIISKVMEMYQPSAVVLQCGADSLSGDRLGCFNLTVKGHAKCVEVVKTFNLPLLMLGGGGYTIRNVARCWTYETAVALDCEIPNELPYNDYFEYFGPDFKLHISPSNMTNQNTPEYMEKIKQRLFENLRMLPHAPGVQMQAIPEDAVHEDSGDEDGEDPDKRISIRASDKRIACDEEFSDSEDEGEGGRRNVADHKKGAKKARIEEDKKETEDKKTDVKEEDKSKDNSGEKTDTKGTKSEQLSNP
Sequence of Class 1 histone deacetylase (Homo sapiens) (Q9BY41 whole entry, looked up): as the sequence (Q9BY41 whole entry) above
Sequence of Histone deacetylase 3 (O15379 whole entry): as the sequence (O15379 whole entry, looked up) above
Sequence of Polyamine deacetylase HDAC10 (Q969S8 whole entry): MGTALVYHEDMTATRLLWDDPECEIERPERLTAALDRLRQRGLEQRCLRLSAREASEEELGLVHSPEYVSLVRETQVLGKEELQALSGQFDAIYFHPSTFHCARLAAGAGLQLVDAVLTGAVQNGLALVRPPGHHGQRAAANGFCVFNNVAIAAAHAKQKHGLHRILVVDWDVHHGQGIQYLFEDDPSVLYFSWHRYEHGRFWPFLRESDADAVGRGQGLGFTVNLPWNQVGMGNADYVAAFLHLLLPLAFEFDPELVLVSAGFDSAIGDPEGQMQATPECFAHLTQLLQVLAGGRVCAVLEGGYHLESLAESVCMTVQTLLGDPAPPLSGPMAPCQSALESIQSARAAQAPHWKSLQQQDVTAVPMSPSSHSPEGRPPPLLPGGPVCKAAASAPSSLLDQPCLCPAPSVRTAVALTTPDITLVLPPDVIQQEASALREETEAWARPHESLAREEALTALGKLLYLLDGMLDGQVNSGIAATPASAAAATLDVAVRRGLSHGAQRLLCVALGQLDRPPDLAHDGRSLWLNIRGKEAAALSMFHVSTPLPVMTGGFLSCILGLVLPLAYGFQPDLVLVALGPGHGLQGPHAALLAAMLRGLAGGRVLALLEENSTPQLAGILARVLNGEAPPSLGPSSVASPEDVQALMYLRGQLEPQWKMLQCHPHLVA
Sequence of Histone deacetylase 2 (Q92769 whole entry): as the sequence (Q92769 whole entry, looked up) above
Sequence of Histone deacetylase 9 (Q9UKV0 whole entry): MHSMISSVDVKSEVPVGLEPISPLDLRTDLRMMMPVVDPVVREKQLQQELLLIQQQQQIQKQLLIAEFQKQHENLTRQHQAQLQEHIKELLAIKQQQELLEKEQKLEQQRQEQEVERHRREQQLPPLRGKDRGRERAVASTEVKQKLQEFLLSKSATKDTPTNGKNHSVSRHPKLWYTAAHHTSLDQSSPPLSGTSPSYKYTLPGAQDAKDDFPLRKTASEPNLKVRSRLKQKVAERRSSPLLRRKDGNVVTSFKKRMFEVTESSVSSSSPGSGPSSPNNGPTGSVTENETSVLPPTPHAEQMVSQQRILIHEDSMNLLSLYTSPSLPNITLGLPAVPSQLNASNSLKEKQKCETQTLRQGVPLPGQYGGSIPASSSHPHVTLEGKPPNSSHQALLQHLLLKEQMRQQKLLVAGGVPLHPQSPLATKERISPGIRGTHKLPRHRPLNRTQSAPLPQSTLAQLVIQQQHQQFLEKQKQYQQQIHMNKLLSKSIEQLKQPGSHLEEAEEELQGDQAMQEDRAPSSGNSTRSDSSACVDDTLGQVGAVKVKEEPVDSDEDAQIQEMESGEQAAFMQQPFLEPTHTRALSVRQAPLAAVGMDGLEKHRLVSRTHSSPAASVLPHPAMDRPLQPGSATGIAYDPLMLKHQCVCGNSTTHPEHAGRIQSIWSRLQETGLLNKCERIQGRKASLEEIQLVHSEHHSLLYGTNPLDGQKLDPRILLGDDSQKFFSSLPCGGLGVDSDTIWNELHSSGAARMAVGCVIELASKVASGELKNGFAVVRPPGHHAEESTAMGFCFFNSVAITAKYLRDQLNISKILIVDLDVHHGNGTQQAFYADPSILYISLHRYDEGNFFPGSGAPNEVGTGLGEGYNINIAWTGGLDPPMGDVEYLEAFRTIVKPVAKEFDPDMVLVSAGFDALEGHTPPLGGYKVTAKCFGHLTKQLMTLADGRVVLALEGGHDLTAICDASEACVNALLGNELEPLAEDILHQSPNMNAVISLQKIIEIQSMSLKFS

SMILES | GI50 (HCC 2998) [nM] | GI50 (CCRF-CEM) [nM] | GI50 (BT-549) [µM] | GI50 (SK-MEL-28) [nM] | GI50 (A498) [nM] | GI50 (MDA-MB-435) [nM] | GI50 (MCF7) [nM] | GI50 (SK-OV-3) [nM] | GI50 (HOP-92) [nM] | IC50 (Histone deacetylase 1 [9]) [nM] | GI50 (NCI-H460) [nM] | GI50 (LOX IMVI) [nM] | GI50 (SNB-19) [nM] | GI50 (Hs-578T) [nM] | other results
O=C(NO)c1ccc(CNC(=O)[C@H]2Cc3c([nH]c4ccccc34)[C@H](c3ccc(Cl)cc3)N2)cc1 | 605 | 617 | 4.93 | 878 | 2060 | 959 | 874 | 2010 | 930 | 61.6 | 1020 | 1090 | 2260 | 1010 | AUC(0-t) [1]: 1.46 µM·h; inhibition [2]: Active; IC50 (Histone deacetylase 11): 2100 nM; IC50 (Histone deacetylase 8): 292 nM; IC50 (Histone deacetylase 9): > 50 µM; IC50 (Histone deacetylase 4): > 50 µM; AUC(0-inf) [3]: 1.52 µM·h; IC50 (Histone deacetylase 5): > 50 µM; IC50 (Histone deacetylase 3): 103 nM; bioavailability [4]: 43.8%; Cmax [5]: 1390 nM; half-life [6]: 203 min; Vd [7]: 0.81 L/kg; IC50 (Histone deacetylase 2): 98.7 nM; IC50 [8]: 496 nM
COc1ccc(CN2[C@@H](C(=O)NCc3ccc(C(=O)NO)cc3)Cc3c([nH]c4ccccc34)[C@@H]2C2CC2)cc1 | 2600 | 996 | 4.99 | 1980 | 2770 | 638 | 2330 | 2870 | 2620 | 171 | 3140 | 2370 | 2890 | 1850 | inhibition (Histone deacetylase 1 [10]): 83.4%

Reference: ChEMBL document CHEMBL5625247, “Tetrahydro-β-carboline derivatives as potent histone deacetylase 6 inhibitors with broad-spectrum antiproliferative activity” (Eur J Med Chem, 2023)
